Source: PMC5731698, “Identification and characterization of the three members of the CLC family of anion transport proteins in Trypanosoma brucei” (PLoS ONE, 2017)

Tests used:
[1] = molecular target: T1, TbVCL3 (Trypanosoma brucei, UniProt Q381B7); test: two-electrode voltage clamp, Xenopus oocytes; type: cell-based
T1 construct: gene Tb11.01.8420; full-length, untagged cRNA in Xenopus laevis oocytes; dimer expected (CLC family), heterodimer with endogenous Xenopus CLC not excluded
T1 sequence (Q381B7 1-918): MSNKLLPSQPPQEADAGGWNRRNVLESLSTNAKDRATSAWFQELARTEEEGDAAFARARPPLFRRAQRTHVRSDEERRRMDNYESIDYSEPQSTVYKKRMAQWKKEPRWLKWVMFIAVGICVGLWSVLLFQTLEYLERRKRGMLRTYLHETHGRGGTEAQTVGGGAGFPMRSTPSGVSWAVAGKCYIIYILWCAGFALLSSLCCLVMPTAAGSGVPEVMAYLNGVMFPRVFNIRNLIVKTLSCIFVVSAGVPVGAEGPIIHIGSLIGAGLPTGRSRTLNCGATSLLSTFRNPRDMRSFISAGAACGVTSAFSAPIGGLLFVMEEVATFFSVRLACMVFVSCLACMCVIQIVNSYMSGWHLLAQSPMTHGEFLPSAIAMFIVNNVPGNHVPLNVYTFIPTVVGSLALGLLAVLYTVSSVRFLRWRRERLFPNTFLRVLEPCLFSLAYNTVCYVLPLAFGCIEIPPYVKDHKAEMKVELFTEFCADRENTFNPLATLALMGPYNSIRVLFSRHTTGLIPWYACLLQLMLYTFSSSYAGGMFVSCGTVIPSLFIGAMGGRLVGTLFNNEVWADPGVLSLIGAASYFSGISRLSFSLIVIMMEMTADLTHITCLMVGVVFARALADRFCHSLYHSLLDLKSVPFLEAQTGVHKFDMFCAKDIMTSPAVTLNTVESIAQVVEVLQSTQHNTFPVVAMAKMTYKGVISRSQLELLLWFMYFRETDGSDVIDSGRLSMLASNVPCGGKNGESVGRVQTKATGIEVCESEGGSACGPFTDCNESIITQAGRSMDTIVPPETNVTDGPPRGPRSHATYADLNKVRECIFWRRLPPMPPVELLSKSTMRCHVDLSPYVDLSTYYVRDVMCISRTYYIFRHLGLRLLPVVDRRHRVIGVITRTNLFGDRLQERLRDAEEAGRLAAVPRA
Text: two-electrode voltage clamp, Xenopus oocytes on TbVCL3 | TbVCL3-expressing oocytes ...

[2] = molecular target: T2, TbVCL2 (Trypanosoma brucei, UniProt Q389H3); test: two-electrode voltage clamp, Xenopus oocytes; type: cell-based
T2 construct: gene Tb10.26.0220; full-length, untagged cRNA in Xenopus laevis oocytes; dimer expected (CLC family), heterodimer with endogenous Xenopus CLC not excluded
T2 sequence (Q389H3 1-941): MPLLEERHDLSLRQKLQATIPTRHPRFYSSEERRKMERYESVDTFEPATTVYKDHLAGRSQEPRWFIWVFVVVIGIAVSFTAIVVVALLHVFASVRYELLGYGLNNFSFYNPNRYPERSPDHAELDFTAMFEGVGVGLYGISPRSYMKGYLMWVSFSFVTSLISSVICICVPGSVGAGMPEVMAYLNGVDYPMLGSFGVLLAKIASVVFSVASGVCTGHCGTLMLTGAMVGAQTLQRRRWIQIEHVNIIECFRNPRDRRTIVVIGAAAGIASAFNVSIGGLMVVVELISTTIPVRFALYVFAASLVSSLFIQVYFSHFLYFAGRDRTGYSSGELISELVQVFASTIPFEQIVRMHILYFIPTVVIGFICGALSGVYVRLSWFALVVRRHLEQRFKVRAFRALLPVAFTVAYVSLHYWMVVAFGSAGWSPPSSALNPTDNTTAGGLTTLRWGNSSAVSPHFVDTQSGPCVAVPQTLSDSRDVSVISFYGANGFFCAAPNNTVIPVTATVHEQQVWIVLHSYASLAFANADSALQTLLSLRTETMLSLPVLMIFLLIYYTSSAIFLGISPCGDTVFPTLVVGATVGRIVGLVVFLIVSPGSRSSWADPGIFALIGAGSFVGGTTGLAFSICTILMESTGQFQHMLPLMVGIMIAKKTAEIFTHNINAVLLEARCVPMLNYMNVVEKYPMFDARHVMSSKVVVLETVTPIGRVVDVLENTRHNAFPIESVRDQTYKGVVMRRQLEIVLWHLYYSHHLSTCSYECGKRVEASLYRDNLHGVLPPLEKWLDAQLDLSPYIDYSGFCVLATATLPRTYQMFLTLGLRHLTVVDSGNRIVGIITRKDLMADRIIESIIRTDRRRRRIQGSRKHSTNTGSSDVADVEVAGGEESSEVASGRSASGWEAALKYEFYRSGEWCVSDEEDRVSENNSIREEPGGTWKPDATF

O=S(=O)(O)c1cc(N=C=S)ccc1/C=C/c1ccc(N=C=S)cc1S(=O)(=O)O [DIDS, 4,4-diisothiocyanostilbene-2,2-disulphonate]
IC50 [1]: 56 ± 18 µM
IC50 [2]: 30 ± 3 µM
